Results from ChEMBL document CHEMBL1201861, “Genomics of Drug Sensitity in Cancer screening data, Wellcome Trust Sanger Institute”.
Several values for one entry are separate records, joined by “and”; a condition that tells them apart may be missing. Identical values can stand only once.

Legend:
Assay in all cases: cells
SW48 = type: functional, cell-based, Homo sapiens;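 further: growth inhibition of SW48 cells, read out with a cell viability assay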
Description: SANGER: Inhibition of human SW48 cell growth in a cell viability assay.

ML-2 = type: functional, cell-based; settings: Homo sapiens;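 further: growth inhibition of ML-2 cells, measured with a cell viability readout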
Description: SANGER: Inhibition of human ML-2 cell growth in a cell viability assay.

BHY = type: functional, cell-based, Homo sapiens;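 further: cell growth inhibition read out by a viability assay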
Hs-578T = type: functional, cell-based, Homo sapiens
Description: SANGER: Inhibition of human Hs-578-T cell growth in a cell viability assay.

NCI-H1650 = type: functional, cell-based, Homo sapiens;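 further: growth inhibition of human NCI-H1650 cells measured by a cell viability assay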
Description: SANGER: Inhibition of human NCI-H1650 cell growth in a cell viability assay.

LXF-289 cell line = type: functional, cell-based, Homo sapiens
Description: SANGER: Inhibition of human LXF-289 cell growth in a cell viability assay.

SNU-C2B = type: functional, cell-based, Homo sapiens;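 further: cell viability readout used to measure compound-driven suppression of SNU-C2B cell proliferation, IC50 marking half-maximal growth inhibition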
Description: SANGER: Inhibition of human SNU-C2B cell growth in a cell viability assay.

HEL = type: functional, cell-based, Homo sapiens;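 further: growth inhibition of HEL cells, read out with a cell viability assay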
Description: SANGER: Inhibition of human HEL cell growth in a cell viability assay.

RXF 393 = type: functional, cell-based; settings: Homo sapiens;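 further: growth inhibition of human RXF 393 cells, read out with a cell viability assay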
A2058 = type: functional, cell-based; settings: Homo sapiens;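 further: reduction of A2058 cell growth, read out with a viability assay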
Description: SANGER: Inhibition of human A2058 cell growth in a cell viability assay.

HuO-3N1 = type: functional, cell-based, Homo sapiens;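 further: cell viability readout used to measure how strongly compounds suppress proliferation of human HuO-3N1 cells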
Description: SANGER: Inhibition of human HuO-3N1 cell growth in a cell viability assay.

ES6 = type: functional, cell-based, Homo sapiens;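 further: growth inhibition of human ES6 cells, read out with a cell viability assay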
Description: SANGER: Inhibition of human ES6 cell growth in a cell viability assay.

LU-99A = type: functional, cell-based, Homo sapiens;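 further: growth inhibition of LU-99A cells, read out with a cell viability assay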
Description: SANGER: Inhibition of human LU-99A cell growth in a cell viability assay.

COR-L23 = type: functional, cell-based, Homo sapiens;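 further: cell viability assay measuring how strongly compounds suppress growth of COR-L23 cells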
Description: SANGER: Inhibition of human COR-L23 cell growth in a cell viability assay.

HD-MY-Z = type: functional, cell-based, Homo sapiens;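 further: growth inhibition of HD-MY-Z cells, read out with a cell viability assay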
Description: SANGER: Inhibition of human HD-MY-Z cell growth in a cell viability assay.

TE-1 = type: functional, cell-based, Homo sapiens;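 further: growth inhibition of the human TE-1 cell line, read out with a cell viability assay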
Description: SANGER: Inhibition of human TE-1 cell growth in a cell viability assay.

K562 = type: functional, cell-based; settings: Homo sapiens
Description: SANGER: Inhibition of human K-562 cell growth in a cell viability assay.

HCC1937 = type: functional, cell-based, Homo sapiens;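 further: growth inhibition measured with a cell viability read-out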
Description: SANGER: Inhibition of human HCC1937 cell growth in a cell viability assay.

647-V = type: functional, cell-based, Homo sapiens;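 further: growth inhibition of 647-V cells, read out with a cell viability assay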
Description: SANGER: Inhibition of human 647-V cell growth in a cell viability assay.

KP-N-YS = type: functional, cell-based; settings: Homo sapiens;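 further: cell viability assay measuring inhibition of cell line growth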
Description: SANGER: Inhibition of human KP-N-YS cell growth in a cell viability assay.

RD = type: functional, cell-based, Homo sapiens
Description: SANGER: Inhibition of human RD cell growth in a cell viability assay.

OCUB-M = type: functional, cell-based, Homo sapiens;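 further: growth inhibition of the cancer cell line, read out through a cell viability assay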
Description: SANGER: Inhibition of human OCUB-M cell growth in a cell viability assay.

EW-11 = type: functional, cell-based, Homo sapiens;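 further: growth inhibition of human EW-11 cells, measured with a cell viability assay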
Description: SANGER: Inhibition of human EW-11 cell growth in a cell viability assay.

UACC-62 = type: functional, cell-based, Homo sapiens;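 further: growth inhibition of human UACC-62 cells, read out by a cell viability assay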
Description: SANGER: Inhibition of human UACC-62 cell growth in a cell viability assay.

MG-63 = type: functional, cell-based, Homo sapiens;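 further: growth inhibition of human MG-63 cells, read out with a cell viability assay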
Description: SANGER: Inhibition of human MG-63 cell growth in a cell viability assay.

OVCAR-5 = type: functional, cell-based, Homo sapiens;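 further: growth inhibition of human OVCAR-5 cells, read out with a cell viability assay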
Description: SANGER: Inhibition of human OVCAR-5 cell growth in a cell viability assay.

COLO-678 = type: functional, cell-based, Homo sapiens
Description: SANGER: Inhibition of human COLO-678 cell growth in a cell viability assay.

NCI-H1155 = type: functional, cell-based; settings: Homo sapiens;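 further: cell growth inhibition measured by a viability assay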
Description: SANGER: Inhibition of human NCI-H1155 cell growth in a cell viability assay.

COLO-792 = type: functional, cell-based, Homo sapiens
Description: SANGER: Inhibition of human COLO-792 cell growth in a cell viability assay.

MCF7 = type: functional, cell-based, Homo sapiens;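 further: growth inhibition of human MCF7 cells, read out with a cell viability assay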
Description: SANGER: Inhibition of human MCF7 cell growth in a cell viability assay.

Calu-6 = type: functional, cell-based, Homo sapiens;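 further: growth of human Calu-6 cells, read out by a cell viability assay, IC50 marking inhibition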
Description: SANGER: Inhibition of human Calu-6 cell growth in a cell viability assay.

Becker = type: functional, cell-based, Homo sapiens;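 further: growth inhibition of Becker cells, read out with a cell viability assay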
Description: SANGER: Inhibition of human Becker cell growth in a cell viability assay.

SCC-9 = type: functional, cell-based, Homo sapiens;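 further: Read-out is a cell viability assay, with values giving inhibition of cell growth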
PC-3 = type: functional, cell-based, Homo sapiens;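 further: cell viability assay measuring growth inhibition of PC-3 cells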
Description: SANGER: Inhibition of human PC-3 cell growth in a cell viability assay.

NCI-H1355 = type: functional, cell-based, Homo sapiens;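 further: growth inhibition of human NCI-H1355 cells, read out by a cell viability assay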
Description: SANGER: Inhibition of human NCI-H1355 cell growth in a cell viability assay.

KARPAS-299 = type: functional, cell-based; settings: Homo sapiens
Description: SANGER: Inhibition of human KARPAS-299 cell growth in a cell viability assay.

NCI-H28 = type: functional, cell-based, Homo sapiens;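 further: growth inhibition of human NCI-H28 cells, read out as cell viability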
Description: SANGER: Inhibition of human NCI-H28 cell growth in a cell viability assay.

PC-14 = type: functional, cell-based, Homo sapiens;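 further: cell viability assay measuring inhibition of PC-14 cell growth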
Description: SANGER: Inhibition of human PC-14 cell growth in a cell viability assay.

SW780 = type: functional, cell-based, Homo sapiens;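 further: growth inhibition of the cells, read out with a cell viability assay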
Description: SANGER: Inhibition of human SW780 cell growth in a cell viability assay.

697 = type: functional, cell-based; settings: Homo sapiens
Description: SANGER: Inhibition of human 697 cell growth in a cell viability assay.

LOX IMVI = type: functional, cell-based; settings: Homo sapiens
Description: SANGER: Inhibition of human LOXIMVI cell growth in a cell viability assay.

COLO-668 = type: functional, cell-based, Homo sapiens
Description: SANGER: Inhibition of human COLO-668 cell growth in a cell viability assay.

A4-Fuk = type: functional, cell-based; settings: Homo sapiens;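 further: growth inhibition of A4-Fuk cells, read out by a cell viability assay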
Description: SANGER: Inhibition of human A4-Fuk cell growth in a cell viability assay.

DEL = type: functional, cell-based; settings: Homo sapiens;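 further: growth inhibition of the human DEL cell line, read out with a cell viability assay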
Description: SANGER: Inhibition of human DEL cell growth in a cell viability assay.

MMAC-SF = type: functional, cell-based, Homo sapiens;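 further: growth inhibition of human MMAC-SF cells, read out with a cell viability assay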
Description: SANGER: Inhibition of human MMAC-SF cell growth in a cell viability assay.

HMV-2 cell line = type: functional, cell-based, Homo sapiens;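 further: growth inhibition of HMV-II cells, read out with a cell viability assay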
Description: SANGER: Inhibition of human HMV-II cell growth in a cell viability assay.

SW1463 = type: functional, cell-based, Homo sapiens;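 further: growth inhibition of SW1463 cells, determined with a cell viability assay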
Description: SANGER: Inhibition of human SW1463 cell growth in a cell viability assay.

OE19 = type: functional, cell-based, Homo sapiens;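 further: growth inhibition of OE19 cells, measured through a cell viability read-out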
Description: SANGER: Inhibition of human OE19 cell growth in a cell viability assay.

DMS-79 = type: functional, cell-based; settings: Homo sapiens;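 further: growth inhibition measured with a cell viability assay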
Description: SANGER: Inhibition of human DMS-79 cell growth in a cell viability assay.

LB2241-RCC = type: functional, cell-based, Homo sapiens;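 further: cell viability assay measuring how strongly the cultured human renal carcinoma line is prevented from growing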
Description: SANGER: Inhibition of human LB2241-RCC cell growth in a cell viability assay.

CAL-27 = type: functional, cell-based, Homo sapiens;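 further: Viability-based readout, IC50 reflecting inhibition of CAL-27 cell growth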
Description: SANGER: Inhibition of human CAL-27 cell growth in a cell viability assay.

S-117 = type: functional, cell-based, Homo sapiens
Description: SANGER: Inhibition of human S-117 cell growth in a cell viability assay.

Measured: IC50

C=CCc1cccc(/C=N/NC(=O)CN2CCN(Cc3ccccc3)CC2)c1O [PAC-1]
> 2560 nM: SW48; Homo sapiens, SW48 | ML-2 | BHY; Homo sapiens, BHY | Hs-578T; Homo sapiens, Hs-578T | NCI-H1650; Homo sapiens, NCI-H1650 | LXF-289 cell line; Homo sapiens, LXF-289 | SNU-C2B; Homo sapiens, SNU-C2B | HEL; Homo sapiens, HEL | RXF 393 | A2058 | HuO-3N1; Homo sapiens, HuO-3N1 | LU-99A; Homo sapiens, LU-99A | COR-L23; Homo sapiens, COR-L23 | HD-MY-Z; Homo sapiens, HD-MY-Z | TE-1; Homo sapiens, TE-1 | K562 | HCC1937; Homo sapiens, HCC1937 | 647-V; Homo sapiens, 647-V | KP-N-YS | RD; Homo sapiens, RD | OCUB-M; Homo sapiens, OCUB-M | EW-11; Homo sapiens, EW-11 | UACC-62; Homo sapiens, UACC-62 | MG-63; Homo sapiens, MG-63 | OVCAR-5; Homo sapiens, OVCAR-5 | COLO-678; Homo sapiens, COLO-678 | NCI-H1155 | COLO-792; Homo sapiens, COLO-792 | MCF7; Homo sapiens, MCF7 | Calu-6; Homo sapiens, Calu-6 | Becker; Homo sapiens, Becker | SCC-9; Homo sapiens, SCC-9 | PC-3; Homo sapiens, PC-3 | NCI-H1355; Homo sapiens, NCI-H1355 | KARPAS-299 | NCI-H28; Homo sapiens, NCI-H28 | PC-14; Homo sapiens, PC-14 | SW780; Homo sapiens, SW780 | LOX IMVI | COLO-668; Homo sapiens, COLO-668 | A4-Fuk | DEL | MMAC-SF; Homo sapiens, MMAC-SF | HMV-2 cell line; Homo sapiens, HMV-2 | SW1463; Homo sapiens, SW1463 | OE19; Homo sapiens, OE19 | DMS-79 | LB2241-RCC; Homo sapiens, LB2241-RCC | CAL-27; Homo sapiens, CAL-27 | S-117; Homo sapiens, S-117
910 nM: 697
1490 nM: ES6; Homo sapiens, ES6

Cc1ccc(Nc2nccc(N(C)c3ccc4c(C)n(C)nc4c3)n2)cc1S(N)(=O)=O [PAZOPANIB]
7580 nM: S-117; Homo sapiens, S-117
1000 nM: MG-63; Homo sapiens, MG-63
6030 nM: ES6; Homo sapiens, ES6
> 8000 nM: SW48; Homo sapiens, SW48 | ML-2 | BHY; Homo sapiens, BHY | Hs-578T; Homo sapiens, Hs-578T | NCI-H1650; Homo sapiens, NCI-H1650 | LXF-289 cell line; Homo sapiens, LXF-289 | SNU-C2B; Homo sapiens, SNU-C2B | HEL; Homo sapiens, HEL | RXF 393 | A2058 | HuO-3N1; Homo sapiens, HuO-3N1 | LU-99A; Homo sapiens, LU-99A | COR-L23; Homo sapiens, COR-L23 | HD-MY-Z; Homo sapiens, HD-MY-Z | TE-1; Homo sapiens, TE-1 | K562 | HCC1937; Homo sapiens, HCC1937 | 647-V; Homo sapiens, 647-V | KP-N-YS | RD; Homo sapiens, RD | EW-11; Homo sapiens, EW-11 | UACC-62; Homo sapiens, UACC-62 | OVCAR-5; Homo sapiens, OVCAR-5 | COLO-678; Homo sapiens, COLO-678 | NCI-H1155 | COLO-792; Homo sapiens, COLO-792 | MCF7; Homo sapiens, MCF7 | Calu-6; Homo sapiens, Calu-6 | Becker; Homo sapiens, Becker | SCC-9; Homo sapiens, SCC-9 | PC-3; Homo sapiens, PC-3 | NCI-H1355; Homo sapiens, NCI-H1355 | KARPAS-299 | NCI-H28; Homo sapiens, NCI-H28 | PC-14; Homo sapiens, PC-14 | SW780; Homo sapiens, SW780 | 697 | LOX IMVI | COLO-668; Homo sapiens, COLO-668 | A4-Fuk | DEL | MMAC-SF; Homo sapiens, MMAC-SF | HMV-2 cell line; Homo sapiens, HMV-2 | SW1463; Homo sapiens, SW1463 | OE19; Homo sapiens, OE19 | DMS-79 | LB2241-RCC; Homo sapiens, LB2241-RCC | CAL-27; Homo sapiens, CAL-27
3310 nM: OCUB-M; Homo sapiens, OCUB-M

Nc1ccn([C@@H]2O[C@H](CO)[C@@H](O)[C@@H]2O)c(=O)n1 [CYTARABINE]
124 nM: HMV-2 cell line; Homo sapiens, HMV-2
290 nM: LOX IMVI
687 nM: A2058
1050 nM: COLO-792; Homo sapiens, COLO-792
1820 nM: NCI-H28; Homo sapiens, NCI-H28
1270 nM: RD; Homo sapiens, RD
270 nM: ML-2
1230 nM: 647-V; Homo sapiens, 647-V
397 nM: NCI-H1155
839 nM: Hs-578T; Homo sapiens, Hs-578T
809 nM: COLO-668; Homo sapiens, COLO-668
55.3 nM: LB2241-RCC; Homo sapiens, LB2241-RCC
1280 nM: PC-3; Homo sapiens, PC-3
700 nM: RXF 393
> 2000 nM: NCI-H1650; Homo sapiens, NCI-H1650 | SNU-C2B; Homo sapiens, SNU-C2B | TE-1; Homo sapiens, TE-1 | K562 | HCC1937; Homo sapiens, HCC1937 | KP-N-YS | OCUB-M; Homo sapiens, OCUB-M | MG-63; Homo sapiens, MG-63 | COLO-678; Homo sapiens, COLO-678 | MCF7; Homo sapiens, MCF7 | Calu-6; Homo sapiens, Calu-6 | SCC-9; Homo sapiens, SCC-9 | KARPAS-299 | MMAC-SF; Homo sapiens, MMAC-SF | SW1463; Homo sapiens, SW1463 | OE19; Homo sapiens, OE19 | DMS-79 | S-117; Homo sapiens, S-117
797 nM: COR-L23; Homo sapiens, COR-L23
220 nM: OVCAR-5; Homo sapiens, OVCAR-5
1330 nM: HuO-3N1; Homo sapiens, HuO-3N1
1930 nM: CAL-27; Homo sapiens, CAL-27
610 nM: PC-14; Homo sapiens, PC-14
666 nM: UACC-62; Homo sapiens, UACC-62
875 nM: DEL
251 nM: LXF-289 cell line; Homo sapiens, LXF-289
898 nM: BHY; Homo sapiens, BHY
1320 nM: SW780; Homo sapiens, SW780
721 nM: ES6; Homo sapiens, ES6
556 nM: NCI-H1355; Homo sapiens, NCI-H1355
745 nM: HD-MY-Z; Homo sapiens, HD-MY-Z
1100 nM: Becker; Homo sapiens, Becker
20.5 nM: HEL; Homo sapiens, HEL
366 nM: SW48; Homo sapiens, SW48
266 nM: LU-99A; Homo sapiens, LU-99A
10.6 nM: 697
1170 nM: A4-Fuk

Cc1cc([C@@H](C)Nc2ccccc2C(=O)O)c2nc(N3CCOCC3)cc(=O)n2c1 [AZD-6482]
3080 nM: A4-Fuk
904 nM: SCC-9; scc-9
> 5120 nM and 3350 nM: MCF7; mcf7
1550 nM and 4060 nM: LXF-289 cell line; lxf-289
1580 nM and 728 nM: OCUB-M; ocub-m
> 5120 nM: SW48; Homo sapiens, SW48 | SW48; sw48 | BHY; bhy | NCI-H1650; nci-h1650 | SNU-C2B; Homo sapiens, SNU-C2B | SNU-C2B; snu-c2b | HEL; hel | A2058 | HuO-3N1; Homo sapiens, HuO-3N1 | HuO-3N1; huo-3n1 | ES6; Homo sapiens, ES6 | ES6; es6 | LU-99A; lu-99a | COR-L23; cor-l23 | HD-MY-Z; hd-my-z | TE-1; Homo sapiens, TE-1 | TE-1; te-1 | K562 | HCC1937; hcc1937 | 647-V; 647-v | KP-N-YS | RD; Homo sapiens, RD | RD; rd | EW-11; ew-11 | OVCAR-5; ovcar-5 | COLO-678; colo-678 | NCI-H1155 | COLO-792; colo-792 | Calu-6; calu-6 | PC-3; pc-3 | NCI-H1355; Homo sapiens, NCI-H1355 | NCI-H1355; nci-h1355 | KARPAS-299 | NCI-H28; nci-h28 | PC-14; pc-14 | SW780; sw780 | LOX IMVI | COLO-668; colo-668 | DEL | MMAC-SF; mmac-sf | HMV-2 cell line; hmv-2 | SW1463; sw1463 | OE19; oe19 | DMS-79 | CAL-27; Homo sapiens, CAL-27 | CAL-27; cal-27 | S-117; s-117
3560 nM: ML-2
4600 nM: 697
> 5120 nM and 2030 nM: UACC-62; uacc-62
1360 nM and 4540 nM: Becker; becker
> 5120 nM and 3500 nM: Hs-578T; hs-578-t
> 5120 nM and 1590 nM: MG-63; mg-63
> 5120 nM and 1320 nM: LB2241-RCC; lb2241-rcc
858 nM: SCC-9; Homo sapiens, SCC-9
